Experimental data taken from US11331333B2, “Treatment of aberrant fibroblast proliferation” (Georg August Universitaet Goettingen Stiftung Oeffentlichen …, priority 2019, dated 2022).

Experiments:
[1] = system: primary murine fibroblast cultures overexpressing EYA1C; assay: γH2A.X^pY142 labelling after NCS exposure in fibroblasts overexpressing EYA1C; type: cell-based, mouse; conditions: 60 minutes after NCS exposure
Description: FIGS. 12A-12B show the effect of the established EYA1 γH2A.X^pY142 tyrosine phosphatase inhibitors Na3VO4 (blocking tyrosine phosphatase activity) and caffeine (blocking ATM-dependent recruitment of EYA1 towards γH2A.X) on γH2A.X^pY142 dephosphorylation and fibroblast accumulation. FIG. 12A depicts results of an analysis of photomicrographs of primary murine fibroblast cultures transfected with control plasmids (vector) and plasmids overexpressing EYA1A (EYA1A^oe) or EYA1C (EYA1C^oe). Cells were exposed to either Na3VO4 or caffeine and labelled for 7H2A.X^pY142 60 minutes after NCS exposure (n=100 nuclei each, data are presented as means±s.d., **p<0.01, # no significance, values of p were calculated using Student's t test comparing indicated groups). FIG. 12B depicts results of an analysis of proliferative activity of primary murine fibroblasts transfected with indicated constructs, seeded at a density of 60,000 per well. Proliferative activity was determined at indicated time points after exposure to Na3VO4 or caffeine (n=3 independent replicates, data are presented as means±s.d., ***p<0.001, ****p<0.0001, values of p were calculated using one-way ANOVA with Bonferroni post-hoc analysis comparing control and Na3VO4^− or caffeine-treated cultures overexpressing EYA1A). […]

[2] = system: human TK173 and TZ1 cultures; assay: DNA damage response foci and NHEJ/HR reporters after NCS exposure in human fibroblast cultures; type: cell-based
Description: FIGS. 20A to D depict average foci per nucleus detected in human TK173 and TZ1 cultures transfected with EYA1Δe10-ASO and labelled for γH2A.X^pS139 (FIG. 20A), γH2A.X^pS139/γH2A.X^py142 (FIG. 20B), γH2A.X^pS139/53Bp1 (FIG. 20C), and γH2A.X^pS139/Rpa1 (FIG. 20D) at indicated time points after NCS exposure (n=100 nuclei each, data are presented as means±s.d.). FIGS. 20E and F depict data on the analysis of NHEJ and HR events […] (NHEJ, FIG. 20E) and pDR-GFP (HR, FIG. 20F) reporter plasmids (n=3 independent replicates, data are presented as means±s.d., **p<0.01, ***p<0.001, values of p were calculated using Student's t test comparing indicated groups). FIG. 20G depicts proliferative activity of human kidney fibroblasts at indicated time points after seeding at a density of 60,000 per well (n=3 independent replicates, data are presented as means s.d., and *p<0.05, values of p were calculated using Student's t test comparing EYA1Δe10-ASO-transfected TZ1 with untreated TZ1 cultures). FIG. 20H depicts an analysis of p-Chk1^pS317 and p-Chk2^PT68 by SDS-PAGE and subsequent immunoblotting 24 hours after NCS exposure. […]

Row | Compound | γH2A.X^pY142 in EYA1C overexpressing cells [1] | premature γH2A.X^pY14 dephosphorylation ([2]; TZ1, after NCS exposure) | HR DDR ([2]; TZ1, pDR-GFP reporter, Rpa1 foci)
1 | Cn1c(=O)c2c(ncn2C)n(C)c1=O [caffeine] | neither Na3VO4 nor caffeine affected | – | –
2 | [Na+].[Na+].[Na+].[O]=[V]([O-])([O-])[O-] [Na3VO4, sodium orthovanadate] | neither Na3VO4 nor caffeine affected | – | –
3 | EYA1Δe10-ASO: oligonucleotides targeting intron 9-10/exon 10 (SEQ ID NO: 5) and exon 10/intron 10-11 (SEQ ID NO: 4) splice junctions (antisense 1 CCTTGGACTGCGAATG; antisense 2 TTTCAACTTGGCAGTA; listed as DNA, chemistry not given here) | – | normalization | increased HR DDR
